Test results published in paper PMC11546719, “Immune Modulatory Profile of the Pateamines PatA and Des-Methyl Des-Amino PatA” (International Journal of Molecular Sciences, 2024).

System: B cells, T cells, M1 MdMs, M2 MdMs
Test: Immune cell viability, formazan-based assay
Design: species or system human
Settings: 48 h
Procedure: nitrogen, and the residue dissolved in 50 µl methanol. The analysis was performed with an Agilent 1290 Inﬁnity LC system (Agilent, Waldbronn, Germany) coupled to a hybrid triple quadrupole linear ion trap mass spectrometer QTRAP 6500+ (Sciex, Darmstadt, Ger-many) equipped with a Turbo-V-source operating in positive electrospray ionization mode. The chromatographic separation was carried out using an Acquity UPLC BEH C18 column (100x 2.1 mm, 1.7 µm; Waters, Eschborn, Deutschland), maintained at 40 °C. Mobile Phase A was 0.1% formic acid with 20 mM ammonium formate and mobile Phase B was meth-anol with 0.1% formic acid with 20 mM ammonium formate. A gradient program was em-ployed at a flow rate of 400 µl/min, as follows: initial 20% B to 0.5 min, increasing to 90% B from 0.5 to 4.5 min, with a hold time of 1.0 min. Re-equilibration was performed by reducing to 20% B from 5.5 to 5.6 min, and then holding at 20% B until 7.0 min.
For analysis and quantiﬁcation of all compounds, Analyst Software 1.7.1 and Multi-quant Software 3.0.3 (both Sciex, Darmstadt, Germany) were used. The precursor-to-prod-uct ion transitions used for quantiﬁcation were: m/z 237.1 → m/z 194.1 for carbamazepine, […]
482.2 for DMDA, and […]. […]
Supplementary Figure S1. […] Viability was determined by a formazan-based assay. […]

SMILES: CC(/C=C/C(C)=C/[C@@H]1Cc2nc(cs2)CCCCC(=O)O[C@@H](C)C/C(C)=C/C=C\C(=O)O1)=C\CN(C)C [DMDA, des-methyl des-amino pateamine A]
- Cytotoxicity in immune cell types: less cytotoxic in comparison with PatA
